Measurements from ChEMBL document CHEMBL3351604, “Rhytidenones A-F, Spirobisnaphthalenes from Rhytidhysteron sp. AS21B, an Endophytic Fungus” (J Nat Prod, 2014).
Activity calls are given as the source filed them. The rule behind the calls is not given here.

Key:
[1] = Cytotoxicity against mouse J774A1 cells by MTT assay; type: cell-based; conditions: j774.a1
[2] = Antiinflammatory activity in mouse J774A1 cells assessed as inhibition of LPS-stimulated NO production pretreated for 2 hrs followed by LPS addition measured after 18 hrs post LPS challenge by spectrophotometry; type: functional, cell-based; conditions: J774.A1
[3] = test system: J774.A1; test: Antiinflammatory activity in mouse J774A1 cells assessed as inhibition of LPS-stimulated NO production pretreated at 10 uM for 2 hrs followed by LPS addition measured after 18 hrs post LPS challenge by spectrophotometry; type: functional, cell-based

Row | SMILES | Activity [1] | IC50 [2] [nM] | further results
1 | O=C1C=C[C@@H](O)[C@@H]2C1=CCCC21Oc2cccc3cccc(c23)O1 | Toxic |  | 
2 | O=C1C[C@H](O)[C@@H](O)[C@@H]2C1=CCCC21Oc2cccc3cccc(c23)O1 |  | 310 | 
3 | O=C1C[C@@H](O)[C@@H](O)[C@@H]2C1=CCCC21Oc2cccc3cccc(c23)O1 |  | 3600 | 
4 | CO[C@@H]1CC(=O)C2=CCCC3(Oc4cccc5cccc(c45)O3)[C@@H]2[C@@H]1O | Toxic |  | 
5 | OC1C=CC(O)C2C1C(O)CCC21Oc2cccc3cccc(c23)O1 (stereo not given) |  |  | inhibition [3]: inactive
